Results reported in ChEMBL document CHEMBL5338795, “Novel Triazoles with Potent and Broad-Spectrum Antifungal Activity In Vitro and In Vivo” (J Med Chem, 2023).
Converted amounts (≈) assume the structure as drawn. The source made the active and inactive calls. The rule behind the calls is not given here.

Experiments:
Candida albicans [1] = test: Antifungal activity against Candida albicans SC5314 assessed as reduction in fungal growth incubated for 24 hrs by CLSI based microdilution analysis; format: functional
[2] = tested on: Meyerozyma guilliermondii; test: Antifungal activity against Meyerozyma guilliermondii ATCC 6260 assessed as reduction in fungal growth incubated for 24 hrs by CLSI based microdilution analysis; format: functional
Candida parapsilosis = test: Antifungal activity against Candida parapsilosis ATCC 22019 assessed as reduction in fungal growth incubated for 24 hrs by CLSI based microdilution analysis; format: functional; details: Lodderomyces parapsilosis
Candida tropicalis = test: Antifungal activity against Candida tropicalis ATCC 750 assessed as reduction in fungal growth incubated for 24 hrs by CLSI based microdilution analysis; format: functional
Nakaseomyces glabratus = test: Antifungal activity against Candida glabrata ATCC 15126 assessed as reduction in fungal growth incubated for 24 hrs by CLSI based microdilution analysis; format: functional
Cryptococcus neoformans = test: Antifungal activity against Cryptococcus neoformans CGMCC3 1563 assessed as reduction in fungal growth incubated for 72 hrs by CLSI based microdilution analysis; format: functional
Aspergillus fumigatus = test: Antifungal activity against Aspergillus fumigatus CGMCC3 7795 assessed as reduction in fungal growth incubated for 48 hrs by CLSI based microdilution analysis; format: functional
Candida albicans [3] = test: Antifungal activity against fluconazole-resistant Candida albicans 102 assessed as inhibition of fungal growth measured for 24 hrs by CLSI based microdilution analysis; format: functional
Candida albicans [4] = test: Antifungal activity against fluconazole-resistant Candida albicans 13 assessed as inhibition of fungal growth measured for 24 hrs by CLSI based microdilution analysis; format: functional
Candida albicans [5] = test: Antifungal activity against fluconazole-resistant Candida albicans 15 assessed as inhibition of fungal growth measured for 24 hrs by CLSI based microdilution analysis; format: functional
Candida albicans [6] = test: Antifungal activity against fluconazole-resistant Candida albicans 901 assessed as inhibition of fungal growth measured for 24 hrs by CLSI based microdilution analysis; format: functional
Candida albicans [7] = test: Antifungal activity against fluconazole-resistant Candida albicans 24D assessed as inhibition of fungal growth measured for 24 hrs by CLSI based microdilution analysis; format: functional
Candida albicans [8] = test: Antifungal activity against fluconazole-resistant Candida albicans 112869 assessed as inhibition of fungal growth measured for 24 hrs by CLSI based microdilution analysis; format: functional
[9] = Hemolytic activity in mouse RBC assessed as hemolysis at 100 microg/ml incubated for 60 mins relative to control; format: toxicity, cell-based, Erythrocyte; details: red blood cells (erythrocytes), at 100 µg/mL, read-out: Activity
Cytochrome P450 3A4 = Cytochrome P450 3A4 (Homo sapiens, UniProt P08684); test: Inhibition of CYP3A4 in human liver microsomes using testosterone as substrate preincubated for 5 mins followed by NADPH addition and measured after 5 mins by LC-MS/MS analysis; format: ADME, Microsome
Chain of Cytochrome P450 3A4 (P08684 whole entry): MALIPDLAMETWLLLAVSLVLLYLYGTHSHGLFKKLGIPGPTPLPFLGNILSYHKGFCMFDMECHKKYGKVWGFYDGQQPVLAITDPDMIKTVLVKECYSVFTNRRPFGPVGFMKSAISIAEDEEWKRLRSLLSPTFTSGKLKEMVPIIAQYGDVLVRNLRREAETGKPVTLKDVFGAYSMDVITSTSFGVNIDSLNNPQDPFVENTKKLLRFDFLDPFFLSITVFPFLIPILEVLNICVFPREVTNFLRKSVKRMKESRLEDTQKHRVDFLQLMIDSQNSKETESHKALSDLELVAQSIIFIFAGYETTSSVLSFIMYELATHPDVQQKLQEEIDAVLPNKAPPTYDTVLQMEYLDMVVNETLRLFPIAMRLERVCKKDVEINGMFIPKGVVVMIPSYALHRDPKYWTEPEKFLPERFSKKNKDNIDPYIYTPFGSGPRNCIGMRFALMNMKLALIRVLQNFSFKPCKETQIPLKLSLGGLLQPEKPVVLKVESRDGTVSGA

Candida albicans [10] = test: In-vivo antifungal activity against Candida albicans […] infected in skin infected ICR mouse model assessed as wound healing at 1 mg/kg, ip pretreated for 24 hrs followed by infection and measured for 5 days; format: functional, organism-based; details: time 144.0 hrs
Candida albicans [11] = test: In-vivo antifungal activity against Candida albicans […] infected in skin infected ICR mouse model assessed as reduction in fungal burden in skin at 1 mg/kg, ip pretreated for 24 hrs followed by infection and measured for 5 days by Periodic acid-Schiff staining based analysis; format: functional, organism-based; details: time 144.0 hrs

Structure (SMILES) | MIC80 (Candida albicans [1]) | MIC80 [2] | MIC80 (Candida parapsilosis) | MIC80 (Candida tropicalis) | MIC80 (Nakaseomyces glabratus) | MIC80 (Cryptococcus neoformans) | MIC80 (Aspergillus fumigatus) | MIC80 (Candida albicans [3]) | MIC80 (Candida albicans [4]) | MIC80 (Candida albicans [5]) | MIC80 (Candida albicans [6]) | MIC80 (Candida albicans [7]) | MIC80 (Candida albicans [8]) | hemolysis at 1 h, 100 microg/ml [9] | IC50 (Cytochrome P450 3A4) | Activity (Candida albicans [10]) | Activity (Candida albicans [11])
OC(CN1CCN(CCCn2ccc3cc(Br)ccc32)CC1)(Cn1cncn1)c1ccc(F)cc1F (stereo not given) | 0.031 µg/mL (≈ 0.0554 µM) | 0.015 µg/mL (≈ 0.0268 µM) | 0.062 µg/mL (≈ 0.111 µM) | 0.312 µg/mL (≈ 0.558 µM) | 0.312 µg/mL (≈ 0.558 µM) | 0.031 µg/mL (≈ 0.0554 µM) | 0.625 µg/mL (≈ 1.12 µM) | 0.062 µg/mL (≈ 0.111 µM) | 0.031 µg/mL (≈ 0.0554 µM) | 1.25 µg/mL (≈ 2.23 µM) | 1.25 µg/mL (≈ 2.23 µM) | 0.062 µg/mL (≈ 0.111 µM) | 0.125 µg/mL (≈ 0.223 µM) | 5.9% | 130 nM |  | 
OC(CN1CCN(CCCCn2ccc3cc(Br)ccc32)CC1)(Cn1cncn1)c1ccc(F)cc1F (stereo not given) | 0.062 µg/mL (≈ 0.108 µM) | 0.125 µg/mL (≈ 0.218 µM) | 0.062 µg/mL (≈ 0.108 µM) | 0.312 µg/mL (≈ 0.544 µM) | 0.312 µg/mL (≈ 0.544 µM) | 0.031 µg/mL (≈ 0.0541 µM) | 1.25 µg/mL (≈ 2.18 µM) | 0.062 µg/mL (≈ 0.108 µM) | 0.062 µg/mL (≈ 0.108 µM) | 1.25 µg/mL (≈ 2.18 µM) | 2.5 µg/mL (≈ 4.36 µM) | 0.125 µg/mL (≈ 0.218 µM) | 0.25 µg/mL (≈ 0.436 µM) |  |  |  | 
OC(CN1CCN(CCCn2ccc3cc(Cl)ccc32)CC1)(Cn1cncn1)c1ccc(F)cc1F (stereo not given) | 0.031 µg/mL (≈ 0.0602 µM) | 0.125 µg/mL (≈ 0.243 µM) | 0.062 µg/mL (≈ 0.12 µM) | 0.625 µg/mL (≈ 1.21 µM) | 0.312 µg/mL (≈ 0.606 µM) | 0.031 µg/mL (≈ 0.0602 µM) | 5 µg/mL (≈ 9.71 µM) | 0.062 µg/mL (≈ 0.12 µM) | 0.062 µg/mL (≈ 0.12 µM) | 2.5 µg/mL (≈ 4.85 µM) | 2.5 µg/mL (≈ 4.85 µM) | 0.062 µg/mL (≈ 0.12 µM) | 0.062 µg/mL (≈ 0.12 µM) |  |  |  | 
N#C/C(=C1/SC[C@@H](c2ccc(Cl)cc2Cl)S1)n1ccnc1 |  |  |  |  |  |  |  |  |  |  |  |  |  |  |  | inactive | Active
OC(CN1CCN(CCCn2ccc3ccc(Cl)cc32)CC1)(Cn1cncn1)c1ccc(F)cc1F (stereo not given) | 0.062 µg/mL (≈ 0.12 µM) | 0.125 µg/mL (≈ 0.243 µM) | 0.125 µg/mL (≈ 0.243 µM) | 0.625 µg/mL (≈ 1.21 µM) | 0.312 µg/mL (≈ 0.606 µM) | 0.031 µg/mL (≈ 0.0602 µM) | 5 µg/mL (≈ 9.71 µM) | 0.062 µg/mL (≈ 0.12 µM) | 0.062 µg/mL (≈ 0.12 µM) | 2.5 µg/mL (≈ 4.85 µM) | 5 µg/mL (≈ 9.71 µM) | 0.062 µg/mL (≈ 0.12 µM) | 0.25 µg/mL (≈ 0.485 µM) |  |  |  | 
OC(CN1CCN(CCCn2ccc3ccccc32)CC1)(Cn1cncn1)c1ccc(F)cc1F (stereo not given) | 0.062 µg/mL (≈ 0.129 µM) | 0.125 µg/mL (≈ 0.26 µM) | 0.125 µg/mL (≈ 0.26 µM) | 0.625 µg/mL (≈ 1.3 µM) | 0.625 µg/mL (≈ 1.3 µM) | 0.062 µg/mL (≈ 0.129 µM) | 10 µg/mL (≈ 20.8 µM) | 0.062 µg/mL (≈ 0.129 µM) | 0.062 µg/mL (≈ 0.129 µM) | 2.5 µg/mL (≈ 5.2 µM) | 5 µg/mL (≈ 10.4 µM) | 0.125 µg/mL (≈ 0.26 µM) | 0.062 µg/mL (≈ 0.129 µM) |  |  |  | 
OC(CN1CCN(CCCn2ccc3ccc(Br)cc32)CC1)(Cn1cncn1)c1ccc(F)cc1F (stereo not given) | 0.062 µg/mL (≈ 0.111 µM) | 0.031 µg/mL (≈ 0.0554 µM) | 0.062 µg/mL (≈ 0.111 µM) | 0.312 µg/mL (≈ 0.558 µM) | 0.312 µg/mL (≈ 0.558 µM) | 0.031 µg/mL (≈ 0.0554 µM) | 1.25 µg/mL (≈ 2.23 µM) | 0.125 µg/mL (≈ 0.223 µM) | 0.031 µg/mL (≈ 0.0554 µM) | 2.5 µg/mL (≈ 4.47 µM) | 2.5 µg/mL (≈ 4.47 µM) | 0.125 µg/mL (≈ 0.223 µM) | 0.5 µg/mL (≈ 0.894 µM) |  |  |  | 
COc1ccc2c(ccn2CCCN2CCN(CC(O)(Cn3cncn3)c3ccc(F)cc3F)CC2)c1 (stereo not given) | 0.062 µg/mL (≈ 0.121 µM) | 0.125 µg/mL (≈ 0.245 µM) | 0.062 µg/mL (≈ 0.121 µM) | 0.625 µg/mL (≈ 1.22 µM) | 0.312 µg/mL (≈ 0.611 µM) | 0.125 µg/mL (≈ 0.245 µM) | 5 µg/mL (≈ 9.79 µM) | 0.062 µg/mL (≈ 0.121 µM) | 0.062 µg/mL (≈ 0.121 µM) | 0.625 µg/mL (≈ 1.22 µM) | 5 µg/mL (≈ 9.79 µM) | 0.125 µg/mL (≈ 0.245 µM) | 0.25 µg/mL (≈ 0.49 µM) |  |  |  | 
